Reference: paper PMC8580996, “2-Oxoglutarate derivatives can selectively enhance or inhibit the activity of human oxygenases” (Nature Communications, 2021)
Several values for one entry are separate records, joined by “and”; a condition that tells them apart may be missing. Equal entries are not always repeated. Each block holds one compound with its values, some of them ahead of it.

Target: FIH (Homo sapiens, UniProt Q9NWT6)
Assay: Mechanism of FIH inhibition: 2OG kinetics at variable concentrations of 18 (Ki, Cornish-Bowden plot)
Type: biochemical
Set-up: FIH reaction rate at variable 2OG and compound 18 concentrations (Figure 5a): unit not given here
Method: Supplementary Figure 28. Determination of the FIH Kapp for 4-(3-phenylprop-1-yl)-2OG (18) (continues on […]
the following page). […]
(LAA), and 20 μM ammonium iron(II) sulfate hexahydrate (FAS, (NH4)2Fe(SO4)2·6H2O) in buffer (50 mM Tris, 50 mM NaCl, pH 7.5, 20° C). Measurement times were normalized to the first sample injection analyzed after the […]
are shown as the mean of independent triplicates (n = 3; mean ± standard deviation, SD). […]
2OG concentrations, determined in the presence of 0.5 μM 18; (e) hydroxylation rates used for the kinetic analysis; […]

FIH, sequence (Q9NWT6 whole entry): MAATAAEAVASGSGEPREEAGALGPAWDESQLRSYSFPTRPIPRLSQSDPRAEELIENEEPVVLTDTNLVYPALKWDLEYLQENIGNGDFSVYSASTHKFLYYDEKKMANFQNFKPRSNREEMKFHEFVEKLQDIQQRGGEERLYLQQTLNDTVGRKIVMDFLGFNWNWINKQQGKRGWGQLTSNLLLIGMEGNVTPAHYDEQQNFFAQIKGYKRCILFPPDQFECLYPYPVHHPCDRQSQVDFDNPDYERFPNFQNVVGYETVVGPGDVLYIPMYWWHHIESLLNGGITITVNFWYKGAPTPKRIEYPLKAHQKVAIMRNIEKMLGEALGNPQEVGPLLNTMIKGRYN

FIH Kmapp for 2OG (absence of 18, HIF-1α788-822): 0.74 ± 0.07 µM | FIH vmaxapp for 2OG (absence of 18, HIF-1α788-822): 5.9 ± 0.1 10-3 μM·s-1
Structure (SMILES): O=C(O)CCC(=O)C(=O)O [2OG, 2-Oxoglutarate]

2OG concentration / rate, Cornish-Bowden plot (Figure 5b) (0.5 μM 18, 2 μM 2OG): 738.825 and 619.579 and 831.947 | 2OG concentration / rate, Cornish-Bowden plot (Figure 5b) (0.5 μM 18, 4 μM 2OG): 1161.44 and 956.709 and 1175.78 | 2OG concentration / rate, Cornish-Bowden plot (Figure 5b) (0.5 μM 18, 8 μM 2OG): 1892.15 and 1526.72 and 1620.09 | 2OG concentration / rate, Cornish-Bowden plot (Figure 5b) (0.5 μM 18, 16 μM 2OG): 2827.85 and 3158.93 and 3165.81 | 2OG concentration / rate, Cornish-Bowden plot (Figure 5b) (0.5 μM 18, 32 μM 2OG): 6761.04 and 5757.47 and 6079.03 | 2OG concentration / rate, Cornish-Bowden plot (Figure 5b) (0.5 μM 18, 64 μM 2OG): 11329.4 and 12181.2 and 11500.5 | FIH reaction rate at variable 2OG and compound 18 concentrations (Figure 5a) (0.5 μM compound 18, 0 μM 2OG): 0 | FIH reaction rate at variable 2OG and compound 18 concentrations (Figure 5a) (0.5 μM compound 18, 0.5 μM 2OG): 0.000919 and 0.000982 and 0.001057 | FIH reaction rate at variable 2OG and compound 18 concentrations (Figure 5a) (0.5 μM compound 18, 1 μM 2OG): 0.001502 and 0.002201 and 0.001615 | FIH reaction rate at variable 2OG and compound 18 concentrations (Figure 5a) (0.5 μM compound 18, 2 μM 2OG): 0.002707 and 0.003228 and 0.002404 | FIH reaction rate at variable 2OG and compound 18 concentrations (Figure 5a) (0.5 μM compound 18, 4 μM 2OG): 0.003444 and 0.004181 and 0.003402 | FIH reaction rate at variable 2OG and compound 18 concentrations (Figure 5a) (0.5 μM compound 18, 8 μM 2OG): 0.004228 and 0.00524 and 0.004938 | FIH reaction rate at variable 2OG and compound 18 concentrations (Figure 5a) (0.5 μM compound 18, 16 μM 2OG): 0.005658 and 0.005065 and 0.005054 | FIH reaction rate at variable 2OG and compound 18 concentrations (Figure 5a) (0.5 μM compound 18, 32 μM 2OG): 0.004733 and 0.005558 and 0.005264 | FIH reaction rate at variable 2OG and compound 18 concentrations (Figure 5a) (0.5 μM compound 18, 64 μM 2OG): 0.005649 and 0.005254 and 0.005565 | 2OG concentration / rate, Cornish-Bowden plot (Figure 5b) (1 μM 18, 2 μM 2OG): 1398.6 and 985.222 and 1090.51 | 2OG concentration / rate, Cornish-Bowden plot (Figure 5b) (1 μM 18, 4 μM 2OG): 1161.44 and 1382.65 and 1432.15 | 2OG concentration / rate, Cornish-Bowden plot (Figure 5b) (1 μM 18, 8 μM 2OG): 2089.32 and 1965.12 and 2137.89 | 2OG concentration / rate, Cornish-Bowden plot (Figure 5b) (1 μM 18, 16 μM 2OG): 3148.99 and 3185.35 and 3256 | 2OG concentration / rate, Cornish-Bowden plot (Figure 5b) (1 μM 18, 32 μM 2OG): 5969.04 and 5882.35 | 2OG concentration / rate, Cornish-Bowden plot (Figure 5b) (1 μM 18, 64 μM 2OG): 12176.6 and 10488.4 | FIH reaction rate at variable 2OG and compound 18 concentrations (Figure 5a) (1.0 μM compound 18, 0 μM 2OG): 0 | FIH reaction rate at variable 2OG and compound 18 concentrations (Figure 5a) (1.0 μM compound 18, 0.5 μM 2OG): 0.000462 and 0.000537 and 0.000636 | FIH reaction rate at variable 2OG and compound 18 concentrations (Figure 5a) (1.0 μM compound 18, 1 μM 2OG): 0.000809 and 0.001158 and 0.001225 | FIH reaction rate at variable 2OG and compound 18 concentrations (Figure 5a) (1.0 μM compound 18, 2 μM 2OG): 0.00143 and 0.00203 and 0.001834 | FIH reaction rate at variable 2OG and compound 18 concentrations (Figure 5a) (1.0 μM compound 18, 4 μM 2OG): 0.003444 and 0.002893 and 0.002793 | FIH reaction rate at variable 2OG and compound 18 concentrations (Figure 5a) (1.0 μM compound 18, 8 μM 2OG): 0.003829 and 0.004071 and 0.003742 | FIH reaction rate at variable 2OG and compound 18 concentrations (Figure 5a) (1.0 μM compound 18, 16 μM 2OG): 0.005081 and 0.005023 and 0.004914 | FIH reaction rate at variable 2OG and compound 18 concentrations (Figure 5a) (1.0 μM compound 18, 32 μM 2OG): 0.005361 and 0.00544 | FIH reaction rate at variable 2OG and compound 18 concentrations (Figure 5a) (1.0 μM compound 18, 64 μM 2OG): 0.005256 and 0.006102 | 2OG concentration / rate, Cornish-Bowden plot (Figure 5b) (2 μM 18, 2 μM 2OG): 2902.76 and 2272.73 and 1572.33 | 2OG concentration / rate, Cornish-Bowden plot (Figure 5b) (2 μM 18, 4 μM 2OG): 2503.13 and 2493.77 and 2115.28 | 2OG concentration / rate, Cornish-Bowden plot (Figure 5b) (2 μM 18, 8 μM 2OG): 3164.56 and 2950.94 and 2606.71 | 2OG concentration / rate, Cornish-Bowden plot (Figure 5b) (2 μM 18, 16 μM 2OG): 5053.7 and 4190.68 and 4087.89 | 2OG concentration / rate, Cornish-Bowden plot (Figure 5b) (2 μM 18, 32 μM 2OG): 7228.37 and 7157.24 and 7025.25 | 2OG concentration / rate, Cornish-Bowden plot (Figure 5b) (2 μM 18, 64 μM 2OG): 11617.4 and 13556.5 | FIH reaction rate at variable 2OG and compound 18 concentrations (Figure 5a) (2.0 μM compound 18, 0 μM 2OG): 0 | FIH reaction rate at variable 2OG and compound 18 concentrations (Figure 5a) (2.0 μM compound 18, 1 μM 2OG): 0.000474 and 0.000421 and 0.000679 | FIH reaction rate at variable 2OG and compound 18 concentrations (Figure 5a) (2.0 μM compound 18, 2 μM 2OG): 0.000689 and 0.00088 and 0.001272 | FIH reaction rate at variable 2OG and compound 18 concentrations (Figure 5a) (2.0 μM compound 18, 4 μM 2OG): 0.001598 and 0.001604 and 0.001891 | FIH reaction rate at variable 2OG and compound 18 concentrations (Figure 5a) (2.0 μM compound 18, 8 μM 2OG): 0.002528 and 0.002711 and 0.003069 | FIH reaction rate at variable 2OG and compound 18 concentrations (Figure 5a) (2.0 μM compound 18, 16 μM 2OG): 0.003166 and 0.003818 and 0.003914 | FIH reaction rate at variable 2OG and compound 18 concentrations (Figure 5a) (2.0 μM compound 18, 32 μM 2OG): 0.004427 and 0.004471 and 0.004555 | FIH reaction rate at variable 2OG and compound 18 concentrations (Figure 5a) (2.0 μM compound 18, 64 μM 2OG): 0.005509 and 0.004721 | 2OG concentration / rate, Cornish-Bowden plot (Figure 5b) (4 μM 18, 2 μM 2OG): 4319.65 and 4926.11 and 3120.12 | 2OG concentration / rate, Cornish-Bowden plot (Figure 5b) (4 μM 18, 4 μM 2OG): 4866.18 and 5181.35 and 3610.11 | 2OG concentration / rate, Cornish-Bowden plot (Figure 5b) (4 μM 18, 8 μM 2OG): 5025.13 and 6092.92 | 2OG concentration / rate, Cornish-Bowden plot (Figure 5b) (4 μM 18, 16 μM 2OG): 7045.35 and 7289.29 and 6153.85 | 2OG concentration / rate, Cornish-Bowden plot (Figure 5b) (4 μM 18, 32 μM 2OG): 9395.18 and 8886.42 and 8623.01 | 2OG concentration / rate, Cornish-Bowden plot (Figure 5b) (4 μM 18, 64 μM 2OG): 15241.7 and 14522.4 and 14719.4 | FIH reaction rate at variable 2OG and compound 18 concentrations (Figure 5a) (4.0 μM compound 18, 0 μM 2OG): 0 | FIH reaction rate at variable 2OG and compound 18 concentrations (Figure 5a) (4.0 μM compound 18, 2 μM 2OG): 0.000463 and 0.000406 and 0.000641 | FIH reaction rate at variable 2OG and compound 18 concentrations (Figure 5a) (4.0 μM compound 18, 4 μM 2OG): 0.000822 and 0.000772 and 0.001108 | FIH reaction rate at variable 2OG and compound 18 concentrations (Figure 5a) (4.0 μM compound 18, 8 μM 2OG): 0.001592 and 0.001313 and 0.00107 | FIH reaction rate at variable 2OG and compound 18 concentrations (Figure 5a) (4.0 μM compound 18, 16 μM 2OG): 0.002271 and 0.002195 and 0.0026 | FIH reaction rate at variable 2OG and compound 18 concentrations (Figure 5a) (4.0 μM compound 18, 32 μM 2OG): 0.003406 and 0.003601 and 0.003711 | FIH reaction rate at variable 2OG and compound 18 concentrations (Figure 5a) (4.0 μM compound 18, 64 μM 2OG): 0.004199 and 0.004407 and 0.004348 | Ki (non-linear regression, HIF-1α788–822, 2OG-competitive): ~0.2 µM | FIH Kmapp for 2OG (presence of 0.5 μM 18): 2.12 ± 0.20 µM | FIH vmaxapp for 2OG (presence of 0.5 μM 18): 5.8 ± 0.1 10-3 μM·s-1 | FIH Kmapp for 2OG (presence of 1.0 μM 18): 4.58 ± 0.34 µM | FIH vmaxapp for 2OG (presence of 1.0 μM 18): 6.2 ± 0.1 10-3 μM·s-1 | FIH Kmapp for 2OG (presence of 2.0 μM 18): 9.62 ± 0.91 µM | FIH vmaxapp for 2OG (presence of 2.0 μM 18): 5.9 ± 0.2 10-3 μM·s-1 | FIH Kmapp for 2OG (presence of 4.0 μM 18): 25.1 ± 2.5 µM | FIH vmaxapp for 2OG (presence of 4.0 μM 18): 6.1 ± 0.3 10-3 μM·s-1
Structure (SMILES): O=C(O)C(=O)CC(CCCc1ccccc1)C(=O)O (centres unmarked) [compound 18, 4-(3-phenylpropyl)-2OG]
